Laboratory results taken from patent publication US9102623B2, “Pyridinecarboxamides, useful-plant-protecting composition comprising them and processes for their preparation and their use” (Bayer Cropscience AG, priority 2007, dated 2015).

How the values were obtained:
Assay type in all cases: in vivo
corn [1] = test: Pre-emergence safener action in corn with the herbicide isoxaflutol; conditions: greenhouse, visual scoring after 3 to 4 weeks
Text: (§1) The damage to the plants is scored visually using a scale of 0-100%, in comparison to control plants:
(§2) 0%=no noticeable effect compared to the untreated plant
(§3) 100%=the treated plants dies.
Seeds or rhizome pieces of monocotyledonous and dicotyledonous weed plants and crop plants were placed in sandy loam soil in plastic pots and covered with soil. The herbicide/safener active compound combinations according to the invention, formulated as suspension emulsion concentrates, and in parallel tests the individual active compounds formulated in a corresponding manner, were then, at various dosages at a water application rate of 600 to 800 l/ha (converted), applied to the surface of the covering soil.
After the treatment, the pots were placed in the greenhouse and kept under good growth conditions for the weeds and the crop plants. Visual scoring of the plant damage or emergence damage was carried out after the test plants had emerged after a test period of 3 to 4 weeks, in comparison to untreated controls.

barley = test: Post-emergence safener action in barley with the herbicide mesosulfuron-methyl; conditions: greenhouse, visual scoring of damage
Text: as §1, §2, §3
(§4) Seeds or rhizome pieces of monocotyledonous and dicotyledonous harmful plants and crop plants are placed in sandy loam soil in plastic pots, covered with soil and cultivated in the greenhouse under good growth conditions. Alternatively, harmful plants encountered in paddy rice cultivation are cultivated in pots in which the surface of the soil is covered by up to 2 cm of water. Three weeks after sowing, the test plants are treated at the three-leaf stage. The herbicide/safener active compound combinations according to the invention, formulated as emulsion concentrates, and in parallel tests the individual active compounds formulated in a corresponding manner, are sprayed at various dosages at a water application rate of […] (converted) onto the green parts of the plants, and, after the test plants were left to stand in the greenhouse for about 2 to 3 weeks under optimum growth conditions, the effect of the preparations is scored visually in comparison to untreated controls. In the case of rice or harmful plants encountered in the cultivation of rice, the active compounds are also added directly to the irrigation water (application analogously to the so-called granule application) or sprayed onto the plants and into the irrigation water. […]

corn [2] = test: Post-emergence safener action in corn with the herbicide tembotrione; conditions: greenhouse, visual scoring of damage
Text: as §1, §2, §3, §4

| Compound | safener action in combination with the herbicide isoxaflutol (corn [1]) | safener action for the herbicide mesosulfuron-methyl (barley) | safener action for the herbicide tembotrione (corn [2]) |
| --- | --- | --- | --- |
| C#CCNC(=O)c1ccc(C(F)(F)F)[nH]c1=O [Compound 39] | good safener action |  |  |
| COC(=O)CN(C)C(=O)c1ccc(C(F)(F)F)[nH]c1=O [Compound 72] | good safener action |  |  |
| CCC(C)NC(=O)c1ccc(C(F)(F)Cl)[nH]c1=O (centres unmarked) [Compound 155] | good safener action | good safener action |  |
| CCC(CC)NC(=O)c1ccc(C(F)(F)C(F)(F)F)[nH]c1=O [Compound 392] | good safener action | good safener action |  |
| CCCC(C)NC(=O)c1ccc(C(F)F)[nH]c1=O (centres unmarked) [Compound 271] | good safener action |  |  |
| CCONC(=O)c1ccc(C(F)(F)Cl)[nH]c1=O [Compound 193] | good safener action | good safener action |  |
| C#CCNC(=O)c1ccc(C(F)(F)C(F)(F)F)[nH]c1=O [Compound 380] | good safener action |  |  |
| CCC(C)NC(=O)c1ccc(C(F)(F)C(F)(F)C(F)(F)F)[nH]c1=O (centres unmarked) [Compound 1636] | good safener action | good safener action | good safener action |
| O=C(NC1CCCCC1)c1ccc(C(F)(F)F)[nH]c1=O [Compound 19] | good safener action |  |  |
| O=C(c1ccc(C(F)(F)Cl)[nH]c1=O)N1CCCC1 [Compound 217] | good safener action |  |  |
| CNC(=O)c1ccc(C(F)(F)C(F)F)[nH]c1=O [Compound 1368, N-Methyl-2-oxo-6-(1,1,2,2-tetrafluoroethyl)-1,2-dihydropyridine-3-carboxamide] | good safener action |  | good safener action |
| CC(C)NC(=O)c1ccc(C(F)F)[nH]c1=O [Compound 232, 6-Difluoromethyl-N-isopropyl-2-oxo-1,2-dihydropyridine-3-carboxamide] | good safener action |  |  |
| CC(C)CNC(=O)c1ccc(C(F)(F)C(F)(F)C(F)(F)F)[nH]c1=O [Compound 1625] | good safener action |  | good safener action |
| NC(=O)c1ccc(C(F)(F)C(F)(F)F)[nH]c1=O [Compound 341, 2-Oxo-6-(pentafluoroethyl)-1,2-dihydropyridine-3-carboxamide] | good safener action | good safener action | good safener action |
| CONC(=O)c1ccc(C(F)(F)Cl)[nH]c1=O [Compound 194] | good safener action | good safener action |  |
| CCNC(=O)c1ccc(C(F)(F)C(F)(F)C(F)(F)F)[nH]c1=O [Compound 1597] | good safener action |  | good safener action |
| CC(C)(C)NC(=O)c1ccc(C(F)(F)Cl)[nH]c1=O [Compound 122] | good safener action |  |  |
| CCNC(=O)c1ccc(C(F)(F)F)[nH]c1=O [Compound 2] | good safener action | good safener action |  |
| C=CCN(CC=C)C(=O)c1ccc(C(F)(F)F)[nH]c1=O [Compound 36] |  | good safener action | good safener action |
